Active and inactive are the calls of the source.
Legend:
[1] = P. falciparum Dd2 growth inhibitors, dose response, SYBR Green, dry powder samples, set 9 (AID 1159568); type: functional, cell-based
[2] = target: Mitogen-activated protein kinase 10 (Homo sapiens, UniProt P53779); assay: Dose response biochemical screening assay for inhibitors of c-Jun N-Terminal Kinase 3 (JNK3). [Related pubchem assays: 746 ]
[3] = Luminescence-based dose response cell-based high throughput screening assay for cytotoxic compounds using the IEC-6 intestinal epithelial cell line. [Related pubchem assays: 1858 (Summary AID.), 1825 (Counterscreen.), 1907 (Confirmation screen.)]; type: functional
[4] = target: Sphingosine 1-phosphate receptor 2 (Homo sapiens, UniProt O95136); assay: Dose Response Cell Based Assay for Antagonists of the S1P2 Receptor. [Related pubchem assays: 856, 736 ]; type: functional
Cytochrome P450 2C9 = Cytochrome P450 2C9 (Homo sapiens, UniProt P11712)
Cytochrome P450 2C19 = Cytochrome P450 2C19 (Homo sapiens, UniProt P33261); assay: Cytochrome panel assay with activity outcomes. Panel member name: p450-cyp2c19 Compounds with AC50 equal or less than 10 uM are considered active; type: functional; conditions: read-out: AC50
Protein Tat = Protein Tat (Human immunodeficiency virus type 1 group M subtype B (isolate HXB2)(HIV-1), UniProt P04608); type: functional;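 note: tat binding to TAR RNA read out by fluorescence polarization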
[5] = THP-1 cell cytotoxicity, dose response, cytotoxicity control for Vif-APOBEC3G degradation inhibitor project, THP-1 cells (AID 1117359); type: functional; conditions: Human immunodeficiency virus 1, THP-1
[6] = target: T1, Aryl hydrocarbon receptor (Homo sapiens, UniProt P35869); assay: Luminescence-based cell-based high throughput dose response assay for activators of the Aryl Hydrocarbon Receptor (AHR). [Related pubchem assays: 2796 (Primary screen (AHR activators in singlicate)), 2845 (Confirmation screen (AHR activators in triplicate)), 434939 (Counterscreen (PXR activators in triplicate)), 2804 (Summary (AHR activators))]; type: ADME
T1 sequence (P35869 whole entry): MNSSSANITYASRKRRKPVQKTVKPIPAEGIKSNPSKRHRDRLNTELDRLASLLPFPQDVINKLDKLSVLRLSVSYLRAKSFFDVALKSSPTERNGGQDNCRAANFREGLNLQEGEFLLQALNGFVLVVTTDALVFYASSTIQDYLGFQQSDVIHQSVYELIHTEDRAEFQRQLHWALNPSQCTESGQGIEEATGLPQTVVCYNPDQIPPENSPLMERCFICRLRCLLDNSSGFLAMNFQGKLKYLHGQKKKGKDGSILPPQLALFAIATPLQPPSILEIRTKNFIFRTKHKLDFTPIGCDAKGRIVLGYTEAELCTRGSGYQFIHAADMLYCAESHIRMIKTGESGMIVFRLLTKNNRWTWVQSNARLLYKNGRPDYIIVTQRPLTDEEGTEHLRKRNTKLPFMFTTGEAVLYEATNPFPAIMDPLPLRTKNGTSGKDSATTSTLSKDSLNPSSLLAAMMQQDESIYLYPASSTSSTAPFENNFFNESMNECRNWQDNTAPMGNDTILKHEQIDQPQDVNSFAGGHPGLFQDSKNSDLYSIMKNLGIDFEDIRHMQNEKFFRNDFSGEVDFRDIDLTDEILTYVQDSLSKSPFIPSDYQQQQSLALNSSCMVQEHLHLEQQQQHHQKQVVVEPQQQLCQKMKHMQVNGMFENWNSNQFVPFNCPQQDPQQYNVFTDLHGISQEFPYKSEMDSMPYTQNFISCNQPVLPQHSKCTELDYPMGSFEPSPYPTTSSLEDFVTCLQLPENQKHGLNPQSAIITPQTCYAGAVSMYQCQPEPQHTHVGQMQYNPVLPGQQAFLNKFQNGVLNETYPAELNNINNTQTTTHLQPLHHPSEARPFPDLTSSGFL

Mitogen-activated protein kinase 10, sequence (P53779 whole entry): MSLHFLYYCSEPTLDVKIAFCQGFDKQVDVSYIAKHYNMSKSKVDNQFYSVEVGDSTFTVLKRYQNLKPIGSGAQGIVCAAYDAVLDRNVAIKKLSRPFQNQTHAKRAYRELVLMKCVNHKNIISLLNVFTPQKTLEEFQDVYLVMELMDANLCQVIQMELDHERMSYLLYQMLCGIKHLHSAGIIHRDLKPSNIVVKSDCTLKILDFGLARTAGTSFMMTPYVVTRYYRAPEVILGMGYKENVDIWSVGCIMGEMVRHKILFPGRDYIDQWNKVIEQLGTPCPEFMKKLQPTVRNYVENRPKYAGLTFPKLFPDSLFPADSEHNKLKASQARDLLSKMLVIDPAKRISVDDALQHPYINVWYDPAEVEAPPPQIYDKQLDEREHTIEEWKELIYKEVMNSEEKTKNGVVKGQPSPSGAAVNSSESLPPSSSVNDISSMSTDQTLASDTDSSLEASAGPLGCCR
Protein Tat, sequence (P04608 whole entry): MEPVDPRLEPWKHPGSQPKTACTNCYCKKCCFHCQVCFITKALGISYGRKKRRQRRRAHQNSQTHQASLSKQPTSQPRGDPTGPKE
Cytochrome P450 2C9, sequence (P11712 whole entry): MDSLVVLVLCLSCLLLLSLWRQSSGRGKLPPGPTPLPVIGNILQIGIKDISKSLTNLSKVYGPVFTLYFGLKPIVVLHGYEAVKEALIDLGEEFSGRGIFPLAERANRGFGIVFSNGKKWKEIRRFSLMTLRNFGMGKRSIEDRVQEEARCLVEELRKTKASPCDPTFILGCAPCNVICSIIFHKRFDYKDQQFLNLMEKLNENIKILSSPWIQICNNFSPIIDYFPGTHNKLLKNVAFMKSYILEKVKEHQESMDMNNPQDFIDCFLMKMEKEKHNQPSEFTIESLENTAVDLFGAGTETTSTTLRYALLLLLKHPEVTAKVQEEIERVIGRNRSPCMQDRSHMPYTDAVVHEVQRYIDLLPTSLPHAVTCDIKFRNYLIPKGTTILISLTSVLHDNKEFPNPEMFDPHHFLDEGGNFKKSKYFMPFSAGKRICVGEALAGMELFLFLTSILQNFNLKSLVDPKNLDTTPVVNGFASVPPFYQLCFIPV
Sphingosine 1-phosphate receptor 2, sequence (O95136 whole entry): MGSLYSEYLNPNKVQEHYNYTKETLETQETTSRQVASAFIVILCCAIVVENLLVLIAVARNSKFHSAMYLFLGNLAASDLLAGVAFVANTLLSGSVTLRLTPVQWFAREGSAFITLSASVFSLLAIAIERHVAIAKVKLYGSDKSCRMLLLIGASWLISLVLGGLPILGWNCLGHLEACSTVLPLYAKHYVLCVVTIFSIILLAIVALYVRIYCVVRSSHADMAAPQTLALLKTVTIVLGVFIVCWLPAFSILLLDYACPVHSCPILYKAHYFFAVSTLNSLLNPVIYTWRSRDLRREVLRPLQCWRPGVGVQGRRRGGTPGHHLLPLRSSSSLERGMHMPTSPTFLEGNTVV
Cytochrome P450 2C19, sequence (P33261 whole entry): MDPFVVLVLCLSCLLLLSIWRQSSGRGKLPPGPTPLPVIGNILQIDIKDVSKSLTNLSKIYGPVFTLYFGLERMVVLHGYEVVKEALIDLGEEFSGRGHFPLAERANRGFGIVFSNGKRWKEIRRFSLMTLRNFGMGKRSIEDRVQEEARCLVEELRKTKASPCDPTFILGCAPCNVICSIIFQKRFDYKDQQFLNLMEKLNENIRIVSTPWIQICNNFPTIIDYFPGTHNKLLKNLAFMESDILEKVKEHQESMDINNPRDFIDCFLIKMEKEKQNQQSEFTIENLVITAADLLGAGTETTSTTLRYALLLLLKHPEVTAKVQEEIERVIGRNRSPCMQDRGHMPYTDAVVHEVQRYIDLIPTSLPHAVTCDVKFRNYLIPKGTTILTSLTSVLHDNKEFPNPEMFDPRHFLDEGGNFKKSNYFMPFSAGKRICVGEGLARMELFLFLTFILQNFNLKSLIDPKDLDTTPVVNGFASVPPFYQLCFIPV

SMILES: O=C(Nc1ccccc1F)N1CCCCN2[C@H](CO)[C@H](c3ccc(/C=C/c4ccccc4)cc3)[C@H]2C1
- AC50 [1]: 1.6 µM (active)

SMILES: O=C1c2ccccc2C(=O)C1c1ccncc1
- IC50 [2]: 18 µM (not active)

SMILES: CCC[C@@H](CNC)NC[C@H](Cc1ccccc1)NCCCCc1ccccc1
- IC50 [3]: 5.4 µM (active)

SMILES: O=C(O)c1sc2cc(C(F)(F)F)cnc2c1-c1ccccc1
- IC50 [4]: > 30 µM (not active)
- AC50 (Cytochrome P450 2C9): 28.2 µM (inconclusive)
- AC50 (Cytochrome P450 2C19): 39.8 µM (inconclusive)

SMILES: C[C@@H]1CCCCO[C@@H](CN(C)S(=O)(=O)c2ccc(F)cc2)[C@@H](C)CN([C@H](C)CO)C(=O)c2cc(N(C)C)ccc2O1
- AC50 [1]: 7.15 µM (active)

SMILES: COc1ccc(S(=O)(=O)c2c(N)n(Cc3ccco3)c3nc4ccccc4nc23)cc1
- IC50 (Protein Tat): 3.46 µM (inconclusive)
- CC50 [5]: > 40 µM (active)

SMILES: O=C(/C=C\c1cccs1)c1c(O)ccc2ccc(=O)oc12
- EC50 [6]: 3.41 µM (active)

Source: ChEMBL document CHEMBL1201862, “PubChem BioAssay data set” (2004)
